In patent US12234224B2, “Pyrimidine and pyridine amine compounds and usage thereof in disease treatment” (Epigen Biosciences, Inc., priority 2021, dated 2025):

Target: T1, Recombinant human p70S6K kinase (Homo sapiens, UniProt P23443)
T1 construct: purchased ThermoFisher Scientific PV3815
Assay: S6K Enzymatic Inhibition Assay (HotSpot kinase assay; called S6K binding assay in Table 2)
Type: biochemical
Settings: IC50 class
Experimental: Enzymatic activity was determined using a commercial HotSpot kinase assay. Recombinant human p70S6K kinase was purchased from ThermoFisher Scientific (cat #PV3815). The substrate S6K/RSK2 peptide 2 was synthesized at Genscript [Piscataway, NJ]. In brief, the substrate was prepared in the reaction buffer [20 mM Hepes (pH 7.5), 10 mM MgCl2, 1 mM EGTA, 0.02% Brij35, 0.02 mg/mL BSA, 0.1 mM Na3VO4, 2 mM DTT, 1% DMSO]. Testing compounds were dissolved in 100% DMSO and a serial dilution was conducted in DMSO. The kinase at final concentration of 3 nM was added into the substrate solution and gently mixed. Test compounds were delivered at the appropriate concentrations into the kinase reaction mixture by Echo550, and incubated for 20 minutes at room temperature. ^33P-ATP (Specific activity 10 μCi/μL) was added into the reaction mixture to initiate the reaction. Assay plates were incubated for 2 hours at room temperature. The radioactivity was detected by filter-binding method. Kinase activity data is expressed as the percent remaining kinase activity in test samples compared to vehicle (DMSO) reactions. IC50 curves were plotted and IC50 values were calculated using the GraphPad Prism 4 program based on a sigmoidal dose-response equation.

T1 sequence (P23443 whole entry): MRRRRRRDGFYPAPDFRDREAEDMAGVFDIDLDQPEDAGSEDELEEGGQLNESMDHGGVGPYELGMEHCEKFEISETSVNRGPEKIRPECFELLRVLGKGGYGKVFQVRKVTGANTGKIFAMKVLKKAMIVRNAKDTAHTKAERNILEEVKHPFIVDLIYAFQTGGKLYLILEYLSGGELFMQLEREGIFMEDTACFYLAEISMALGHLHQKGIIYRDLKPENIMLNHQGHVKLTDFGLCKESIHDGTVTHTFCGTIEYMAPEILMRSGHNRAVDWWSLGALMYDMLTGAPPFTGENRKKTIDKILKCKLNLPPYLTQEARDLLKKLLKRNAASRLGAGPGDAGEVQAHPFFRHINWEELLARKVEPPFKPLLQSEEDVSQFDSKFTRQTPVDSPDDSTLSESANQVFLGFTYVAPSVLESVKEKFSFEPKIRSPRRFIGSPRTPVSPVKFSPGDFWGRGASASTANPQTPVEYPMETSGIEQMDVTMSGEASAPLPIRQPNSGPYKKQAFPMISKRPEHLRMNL

SMILES	IC50
CC(c1cccc(C(F)(F)F)c1)n1cc(-c2ncnc(N)c2-c2ccc(Cl)cc2)cn1 (racemic) [Example 3, (±)-5-(p-Chlorophenyl)-6-(1-{1-[m-(trifluoromethyl)phenyl]ethyl}-1H-pyrazol-4-yl)-4-pyrimidinylamine]	50 to 500 nM
Nc1ncnc(-c2cnn(C(CO)c3ccccc3)c2)c1-c1ccc(Cl)cc1 (racemic) [Example 5, (±)-2-{4-[6-Amino-5-(p-chlorophenyl)-4-pyrimidinyl]-1H-pyrazol-1-yl}-2-phenylethanol]	< 50 nM
NCC(c1ccccc1)n1cc(-c2ncnc(N)c2-c2ccc(Cl)cc2)cn1 (racemic) [Example 6, (±)-6-[1-(2-Amino-1-phenylethyl)-1H-pyrazol-4-yl]-5-(p-chlorophenyl)-4-pyrimidinamine]	< 50 nM
NC(=O)C(c1ccccc1)n1cc(-c2ncnc(N)c2-c2ccc(Cl)cc2)cn1 (racemic) [Example 8, (±)-{4-[6-Amino-5-(p-chlorophenyl)-4-pyrimidinyl]-1H-pyrazol-1-yl}phenylacetamide]	< 50 nM
CN(C)C(=O)C(c1ccccc1)n1cc(-c2ncnc(N)c2-c2ccc(Cl)cc2)cn1 (racemic) [Example 9, (±)-N,N-Dimethyl{4-[6-amino-5-(p-chlorophenyl)-4-pyrimidinyl]-1H-pyrazol-1-yl}phenylacetamide]	50 to 500 nM
Nc1ncnc(-c2cnn(Cc3ccccc3)c2)c1-c1ccc(Cl)cc1 [Example 1, 6-(1-Benzyl-1H-pyrazol-4-yl)-5-(p-chlorophenyl)-4-pyrimidinylamine]	< 50 nM
Cn1cc(-c2ncnc(N)c2-c2ccc(Cl)cc2)cn1 [Example 2, 5-(p-Chlorophenyl)-6-(1-methyl-1H-pyrazol-4-yl)-4-pyrimidinylamine]	50 to 500 nM
Nc1ncnc(-c2cnn(Cc3ccc(C(F)(F)F)cc3)c2)c1-c1ccc(Cl)cc1 [Example 4, 5-(p-Chlorophenyl)-6-(1-{[p-(trifluoromethyl)phenyl]methyl}-1H-pyrazol-4-yl)-4-pyrimidinylamine]	< 50 nM
C=C(c1ccccc1)n1cc(-c2ncnc(N)c2-c2ccc(Cl)cc2)cn1 [Example 7, 5-(p-Chlorophenyl)-6-[1-(1-phenylethenyl)-1H-pyrazol-4-yl]-4-pyrimidinylamine]	< 50 nM
Nc1ncnc(-c2cnn(-c3ccccc3)c2)c1-c1ccc(Cl)cc1 [Example 10, 5-(p-Chlorophenyl)-6-(1-phenyl-1H-pyrazol-4-yl)-4-pyrimidinylamine]	50 to 500 nM
Cc1ccccc1-n1cc(-c2ncnc(N)c2-c2ccc(Cl)cc2)cn1 [Example 11, 5-(p-Chlorophenyl)-6-[1-(o-tolyl)-1H-pyrazol-4-yl]-4-pyrimidinylamine]	50 to 500 nM
Nc1ncnc(-c2cnn(-c3cccc(Cl)c3)c2)c1-c1ccc(Cl)cc1 [Example 12, 5-(p-Chlorophenyl)-6-[1-(m-chlorophenyl)-1H-pyrazol-4-yl]-4-pyrimidinylamine]	500 to 10000 nM
Nc1ncnc(-c2cnn(-c3cccc(C(F)(F)F)c3)c2)c1-c1ccc(Cl)cc1 [Example 13, 5-(p-Chlorophenyl)-6-{1-[m-(trifluoromethyl)phenyl]-1H-pyrazol-4-yl}-4-pyrimidinylamine]	500 to 10000 nM
Nc1ncnc(-c2cnn(C3CCCCO3)c2)c1-c1ccc(Cl)cc1 (centres unmarked) [Example 14, 5-(p-Chlorophenyl)-6-[1-(tetrahydro-2H-pyran-2-yl)-1H-pyrazol-4-yl]-4-pyrimidinylamine]	500 to 10000 nM
Nc1ncnc(-c2cnn(Cc3cccc(F)c3)c2)c1-c1ccc(Cl)cc1 [Example 15, 5-(p-Chlorophenyl)-6-{1-[(m-fluorophenyl)methyl]-1H-pyrazol-4-yl}-4-pyrimidinylamine]	< 50 nM
Nc1ncnc(-c2cnn(Cc3ccc(Cl)cc3)c2)c1-c1ccc(Cl)cc1 [Example 16, 5-(p-Chlorophenyl)-6-{1-[(p-chlorophenyl)methyl]-1H-pyrazol-4-yl}-4-pyrimidinylamine]	< 50 nM
Nc1ncnc(-c2cnn(Cc3ccccc3C(F)(F)F)c2)c1-c1ccc(Cl)cc1 [Example 17, 5-(p-Chlorophenyl)-6-(1-{[o-(trifluoromethyl)phenyl]methyl}-1H-pyrazol-4-yl)-4-pyrimidinylamine]	50 to 500 nM
Nc1ncnc(-c2cnn(Cc3ccc(F)cc3)c2)c1-c1ccc(Cl)cc1 [Example 18, 5-(p-Chlorophenyl)-6-{1-[(p-fluorophenyl)methyl]-1H-pyrazol-4-yl}-4-pyrimidinylamine]	< 50 nM
Nc1ncnc(-c2cnn(Cc3ccc(F)cc3F)c2)c1-c1ccc(Cl)cc1 [Example 19, 5-(p-Chlorophenyl)-6-{1-[(2,4-difluorophenyl)methyl]-1H-pyrazol-4-yl}-4-pyrimidinylamine]	< 50 nM
Nc1ncnc(-c2cnn(Cc3ccc(OC(F)(F)F)cc3)c2)c1-c1ccc(Cl)cc1 [Example 20, 5-(p-Chlorophenyl)-6-{1-[(p-trifluoromethoxyphenyl)methyl]-1H-pyrazol-4-yl}-4-pyrimidinylamine]	< 50 nM
Nc1ncnc(-c2cnn(Cc3ccccc3F)c2)c1-c1ccc(Cl)cc1 [Example 21, 5-(p-Chlorophenyl)-6-{1-[(o-fluorophenyl)methyl]-1H-pyrazol-4-yl}-4-pyrimidinylamine]	< 50 nM
Nc1ncnc(-n2cc(C(=O)c3ccccc3)cn2)c1-c1ccc(Cl)cc1 [Example 22, {1-[6-Amino-5-(p-chlorophenyl)-4-pyrimidinyl]-1H-pyrazol-4-yl}phenylmethanone]	500 to 10000 nM
Nc1ncnc(-n2cc(Cc3ccccc3)cn2)c1-c1ccc(Cl)cc1 [Example 23, 6-(4-Benzyl-1H-pyrazol-1-yl)-5-(p-chlorophenyl)-4-pyrimidinylamine]	50 to 500 nM
COc1ccc(-c2c(N)ncnc2-c2cnn(Cc3ccc(C(F)(F)F)cc3)c2)cc1 [Example 24, 5-(p-Methoxyphenyl)-6-(1-{[p-(trifluoromethyl)phenyl]methyl}-1H-pyrazol-4-yl)-4-pyrimidinylamine]	< 50 nM
Nc1ncnc(-c2cnn(Cc3ccc(C(F)(F)F)cc3)c2)c1-c1ccc(F)cc1 [Example 25, 5-(p-Fluorophenyl)-6-(1-{[p-(trifluoromethyl)phenyl]methyl}-1H-pyrazol-4-yl)-4-pyrimidinylamine]	< 50 nM
CS(=O)(=O)c1ccc(-c2c(N)ncnc2-c2cnn(Cc3ccc(C(F)(F)F)cc3)c2)cc1 [Example 26, 5-[p-(Methylsulfonyl)phenyl]-6-(1-{[p-(trifluoromethyl)phenyl]methyl}-1H-pyrazol-4-yl)-4-pyrimidinylamine]	500 to 10000 nM
Nc1ncnc(-c2cnn(Cc3ccc(C(F)(F)F)cc3)c2)c1-c1ccc(Cl)c(F)c1 [Example 27, 5-(4-Chloro-3-fluorophenyl)-6-(1-{[p-(trifluoromethyl)phenyl]methyl}-1H-pyrazol-4-yl)-4-pyrimidinylamine]	< 50 nM
Nc1ncnc(-c2cnn(Cc3ccc(C(F)(F)F)cc3)c2)c1-c1ccc(Cl)c(Cl)c1 [Example 28, 5-(3,4-Dichlorophenyl)-6-(1-{[p-(trifluoromethyl)phenyl]methyl}-1H-pyrazol-4-yl)-4-pyrimidinylamine]	500 to 10000 nM
COc1cc(-c2c(N)ncnc2-c2cnn(Cc3ccc(C(F)(F)F)cc3)c2)ccc1Cl [Example 29, 5-(4-Chloro-3-methoxyphenyl)-6-(1-{[p-(trifluoromethyl)phenyl]methyl}-1H-pyrazol-4-yl)-4-pyrimidinylamine]	500 to 10000 nM
